According to patent publication EP2296651B1, “5-HYDROXYMETHYL-OXAZOLIDIN-2-ONE DERIVATIVES FOR TREATING BACTERIAL INTESTINAL DISEASES” (Actelion Pharmaceuticals Ltd., priority 2008, dated 2009):
≈ marks a conversion by molar mass, not a printed value.

What was measured:
E. faecium ATCC 19434 = test: Broth microdilution MIC, aerobic Gram-positive bacteria; settings: Enterococcus faecium, ATCC19434, 48 h
C. difficile ATCC 9689 = test: Broth microdilution MIC, anaerobic; assay type: cell-based, Clostridium difficile; settings: Clostridioides difficile, ATCC9689, 48h at 37°C, read-out: MIC regarding C. difficile ATCC 9689
E. faecium L1 (LZD-R) = test: Broth microdilution MIC, aerobic Gram-positive bacteria; settings: Enterococcus faecium, 48 h
C. perfringens DSM 756 = test: microbe, parasite or virus in culture; assay type: cell-based; settings: Clostridium perfringens, DSM756, 48 h, read-out: MIC regarding C. perfringens DSM 756
S. aureus S1 (LZD-R) = test: Broth microdilution MIC, aerobic Gram-positive bacteria; settings: Staphylococcus aureus, 48 h
[1] = tested on: Bacteroides fragilis A-501 B 8039; test: Agar dilution MIC, anaerobic strains; assay type: cell-based; settings: A501B8039, 48 h
E. faecium A 962 = test: Broth microdilution MIC, aerobic Gram-positive bacteria; settings: Enterococcus faecium, A962, 48 h
[2] = tested on: Clostridium difficile A- 1179 NC 13366; test: Agar dilution MIC, anaerobic strains; assay type: cell-based; settings: Clostridioides difficile, A1179NC13366, 48 h
E. faecalis H 6279 = test: Broth microdilution MIC, aerobic Gram-positive bacteria; settings: Enterococcus faecalis, H6279, 48 h
E. faecalis H 6897 = test: as above; settings: Enterococcus faecalis, H6897, 48 h
[3] = tested on: Lactobacillus acidophilus A-1255 DSM 20079; test: Agar dilution MIC, anaerobic strains; assay type: cell-based
E. faecalis H 4060 = test: Broth microdilution MIC, aerobic Gram-positive bacteria; settings: Enterococcus faecalis, H4060, 48 h
E. faecalis ATCC 29212 = test: as above; settings: Enterococcus faecalis, ATCC29212, 48 h
E. faecium H 7966 = test: as above; settings: Enterococcus faecium, H7966, 48 h
C. difficile NC 13366 = test: Broth microdilution MIC, anaerobic; assay type: cell-based, Clostridium difficile; settings: Clostridioides difficile, NC13366, 48h at 37°C, quinolone-resistant hypervirulent strain, read-out: MIC regarding C. difficile NC 13366
E. faecium H 7969 = test: Broth microdilution MIC, aerobic Gram-positive bacteria; settings: Enterococcus faecium, H7969, 48 h

O=C(O)c1cn(C2CC2)c2cc(N3CCC(O)(COc4ccc(N5C[C@H](CO)OC5=O)cc4F)CC3)c(F)cc2c1=O [Example 1, 1-cyclopropyl-6-fluoro-7-{4-[2-fluoro-4-((R)-5-hydroxymethyl-2-oxo-oxazolidin-3-yl)-phenoxymethyl]-4-hydroxy-piperidin-1-yl}-4-oxo-1,4-dihydro-quinoline-3-carboxylic acid]
MIC (E. faecium ATCC 19434): 0.25 µg/mL (≈ 0.427 µM) | MIC (C. difficile ATCC 9689): 0.125 µg/mL (≈ 0.213 µM) | MIC (E. faecium L1 (LZD-R)): 2 µg/mL (≈ 3.42 µM) | MIC (C. perfringens DSM 756): ≤ 0.03 µg/mL | MIC (S. aureus S1 (LZD-R)): 1 µg/mL (≈ 1.71 µM) | MIC [1]: 4 µg/mL (≈ 6.83 µM) | MIC (E. faecium A 962): 0.5 µg/mL (≈ 0.854 µM) | MIC [2]: ≤ 0.06 µg/mL | MIC (E. faecalis H 6279): 0.25 µg/mL (≈ 0.427 µM) | MIC (E. faecalis H 6897): 1 µg/mL (≈ 1.71 µM) | MIC ([3]; DSM20079, 48 h, Lactobacillus acidophilus A-1255, DSM 20079): 0.5 µg/mL (≈ 0.854 µM) | less activity against Lactobacillus acidophilus A-1255 compared to the compound of Example 5 of WO 2005/058888 ([3]; versus R1): 8 times | MIC (E. faecalis H 4060): 0.25 µg/mL (≈ 0.427 µM) | MIC (E. faecalis ATCC 29212): 0.25 µg/mL (≈ 0.427 µM) | MIC (E. faecium H 7966): 0.5 µg/mL (≈ 0.854 µM) | MIC (C. difficile NC 13366): 0.06 µg/mL (≈ 0.102 µM) | MIC (E. faecium H 7969): 1 µg/mL (≈ 1.71 µM)
